# Test results published in BindingDB's records for patent US12473304 (Bristol-Myers Squibb, 2025).
# Target: Protein-arginine deiminase type-4 (Homo sapiens, UniProt Q9UM07)
# Assay: RFMS Human PAD4 Functional Assay 1
# Procedure: Reaction volume: 26 μlAssay buffer: 25 mM hepes, pH 7.5, 5 mM NaCl, 1 mM DTT, 0.2 mg/ml BSA, 0.01% CHAPS, 50 μM Calcium, and 5 μM TPENFinal concentrations: 5 nM hPAD4 enzyme, 250 μM BASE, and 0.5% DMSOTotal incubation time: 30 mins compound and enzyme preincubation at 37° C., 90 min enzyme/substrate reaction, 30 min reaction with phenyl glyoxal at 37° C.Stop solution: 40 μl 5% TCA in ACN0.13 μL of compound solution was added to 13 μL of 10 nM PAD4 in assay buffer. After 30 min 13 μl of 500 μM of BAEE was added in 25 mM hepes, pH 7.5, 5 mM NaCl, 1 mM DTT, 0.2 mg/ml BSA, 0.01% CHAPS, 50 μM Calcium, 5 μM TPEN was added and the reaction incubated for 90 min at 37° C. The enzymatic reaction was quenched by addition of 15 μl of 6.1N TCA, 100% Final Concentration is 20%, 35 μl of 8.5 mM phenyl glyoxal (final concentration 4 mM) is then added and the reaction is incubated for 30 min at 37° C.After 30 minutes the plates are spun down to remove all precipitate. The enzyme reaction was quenched with an equal volume of methanol containing internal standard (modified citrulline). Samples were loaded onto the Rapid Fire RF300 system (Agilent) wherein they were first sipped for 1000 ms and then directly loaded to a C18 separations cartridge using a mixture of acetonitrile containing 0.01% formic acid for 3000 ms desalting. The flow rate of the mobile phase was 1.5 ml/min. Once the samples were eluted from the cartridge, a mobile phase of acetonitrile containing 0.01% formic acid was used to move the samples into the mass spectrometer for 4000 ms at a flow rate of 1.25 ml/min/Sciex API5500 triple quadrupole mass spectrometer (Applied Biosystems) equipped with ESI was used to analyze the peptidyl citrulline and internal standard ions.
# Sequence of Protein-arginine deiminase type-4 (Q9UM07 whole entry): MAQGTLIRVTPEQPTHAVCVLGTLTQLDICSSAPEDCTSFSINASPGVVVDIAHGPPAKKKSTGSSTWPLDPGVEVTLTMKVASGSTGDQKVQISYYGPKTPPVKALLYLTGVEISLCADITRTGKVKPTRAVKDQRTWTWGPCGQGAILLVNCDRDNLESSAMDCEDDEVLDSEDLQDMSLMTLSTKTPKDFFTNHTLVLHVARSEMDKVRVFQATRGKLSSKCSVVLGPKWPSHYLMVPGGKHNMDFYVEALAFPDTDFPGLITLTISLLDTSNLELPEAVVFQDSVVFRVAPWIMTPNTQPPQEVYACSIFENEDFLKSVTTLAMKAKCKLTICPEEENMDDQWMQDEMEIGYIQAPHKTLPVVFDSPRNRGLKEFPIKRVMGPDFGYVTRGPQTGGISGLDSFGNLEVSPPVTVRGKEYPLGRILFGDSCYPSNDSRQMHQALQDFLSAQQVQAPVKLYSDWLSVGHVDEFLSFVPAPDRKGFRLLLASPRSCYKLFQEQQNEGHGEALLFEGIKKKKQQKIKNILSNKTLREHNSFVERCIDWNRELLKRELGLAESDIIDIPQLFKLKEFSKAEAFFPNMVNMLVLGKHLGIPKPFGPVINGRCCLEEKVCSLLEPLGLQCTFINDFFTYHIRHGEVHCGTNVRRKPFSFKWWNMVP
row,Compound,IC50
1,"COc1cc(C(=O)N2C[C@H](N)C[C@@H](F)C2)cn2nc(-c3cc4ccc(Cl)nc4n3CC3CC3)c(C)c12 [US12473304, Example 15]",526 nM
2,"COc1cc(C(=O)N2C[C@H](N)C[C@@H](F)C2)cn2nc(-c3cc4ccc(-c5cc(F)c(C(N)=O)cc5C)nc4n3CC3CC3)c(C)c12 [US12473304, Example 207]",150 nM
3,"COc1cc(C(=O)N2CCC[C@@H](N)C2)cn2nc(-c3cc4ccc(-c5cc(F)c(C(N)=O)cc5C)nc4n3CC3CC3)c(C)c12 [US12473304, Example 208]",140 nM

# Compounds with a lower IC50, results first:
row,IC50,Compound
1,55 nM,"Cc1c(-c2cc3ccc(-c4ccc5c(c4)CNC5=O)nc3n2CC2CC2)nn2cc(C(=O)N3CC4CCC3[C@@H]4N)ccc12 (stereo not given in full) [US12473304, Example 64]"
2,30 nM,"COc1cc(C(=O)N2CC3CCC2[C@@H]3N)cn2nc(-c3cc4ccc(C(C)(C)O)cc4n3CC3CC3)c(C)c12 (stereo not given in full) [US12473304, Example 97]"
